Target: T1, NL20 human bronchial epithelial cells expressing human Z-AAT (Homo sapiens, UniProt P01009, E366K)
T1 construct: expressed in transfected cells; host or cells: NL20 human bronchial epithelial cells (NL20-SI line, doxycycline added)
Assay: AAT Function Assay (MSD Assay NL20-SI Cell Line)
Assay type: cell-based
Conditions: functionally active AAT (AAT-hNE complex) in supernatant of NL20 cells expressing human Z-AAT; read-out: NL20 Func. (EC50)
Experimental: A. AAT Function Assay (MSD Assay NL20-SI Cell Line)
Alpha-1 antitrypsin (AAT) is a SERPIN (serine protease inhibitor) that inactivates enzymes by binding to them covalently. This assay measured the amount of functionally active AAT in a sample in the presence of the disclosed compounds 1-215 by determining the ability of AAT to form an irreversible complex with human neutrophil Elastase (hNE). In practice, the sample (cell supernatant, blood sample, or other) was incubated with excess hNE to allow AAT-Elastase complex to be formed with all functional AAT in the sample. This complex was then captured to a microplate coated with an anti-AAT antibody. The complex captured to the plate was detected with a labeled anti-Elastase antibody and quantitated using a set of AAT standards spanning the concentration range present in the sample. Meso Scale Discovery (MSD) plate reader, Sulfo-tag labeling, and microplates were used to provide high sensitivity and wide dynamic range.
• 1. Harvest NL20 human bronchial epithelial cells expressing human Z-AAT in OptiMEM™ containing Pen/Strep (P/S) • 2. Seed at 16,000 cells/well in 30 μL (384 well plate) • 3. Centrifuge plates briefly up to speed (1200 rpm) and place into 37° C. incubator overnight Day 2: Compound Addition and Coating Plates with Capture Antibody Compound Addition: • 1. Dispense 40 μL of OptiMEM™ (P/S) with doxycycline (1:1000 stock=0.1 μM final) to each well of the compound plate using a multidrop Combi in hood • 2. Remove cell plate from incubator, flip/blot and take immediately to Bravo to transfer compounds • 3. Return plates to incubator overnight Coat MSD Plates • 1. Dilute capture antibody (Polyclonal Goat anti-AAT) to 5 μg/mL (1:200) in PBS (no BSA). • 2. Dispense 25 μL of diluted capture antibody into all wells of MSD 384-well High Bind plate using the Multidrop equipped with a standard cassette. • 3. Incubate overnight at 4° C. Prepare Blocker A (BSA) Solutions • 1. Prepare solution of 5% MSD Blocker A (BSA) following the manufacturer's instructions. • 2. Further dilute the 5% MSD Blocker A in PBS to 1% (Blocker A) as needed. Day 3: Run MSD Assay
Block Plates • 1. Wash plate 1× with 50 μL Wash buffer (PBS+0.5% Tween 20), and adds 35 μL 5% Block A buffer to block non-specific binding on washer dispenser • 2. Rotate plates on shaker for 1 hour at 600 rpm
Prepare M-AAT Standards • 1. Dilute M-AAT stock to 1.6 μg/mL in 1% BSA Blocker A (Stock in −70° C.); then prepare 12×1:2 serial dilutions in 1% Blocker A • 2. The top starting final concentration on MSD plate is 320 ng/mL. These dilutions correspond to a final concentration of 320, 160, 80, 40, 20, 10, 5, 2.5, 1.25, 0.625, 0.312, 0.156 ng/mL.
Dilution Plate • 1. Add 80 μL of 1% Assay buffer to all wells except columns 1/24 (standards) with Multidrop Combi • 2. Add diluted standards to columns 1 and 24 • 3. Centrifuge dilution plates 1200 rpm briefly
Cell Plate • 1. Aspirate columns which will have the standards from the cell plates in the hood using 16-pin aspirator
Prepare Human Neutrophil Elastase (hNE) • 1. Prepare 1 μg/mL Human Neutrophil Elastase by diluting in 1% Blocker A. • a. Small 100 μg vial—add 1 mL PBS (100 μg/mL) • i. This can then be diluted 1:100 in 1% Assay Buffer for a final 1 μg/mL concentration
MSD—Add hNE (20 μL/well) • 1. After the MSD plate has blocked for at least 1 hour, wash plate 1× with 50 μL Wash buffer (PBS+0.5% Tween 20) and then add 20 μL hNE to each well
Bravo—Cell Plate—Dilution Plate—MSD Plate
Using the Bravo aspirate 10 μL from the cell plate, transfer to the dilution plate (9-fold dilution)
• 1. Mix 25 μL 3×, then aspirate 5 μL, transfer to MSD plate (5-fold dilution) • 2. Mix 10 μL 3×. Total dilution is 45 fold. • 3. Shake plates at 600 rpm for 1.5 hours
Add Functional detection hNE antibody • 1. Wash plate 1× with wash buffer • 2. […]

T1 sequence (P01009 25-418 E366K): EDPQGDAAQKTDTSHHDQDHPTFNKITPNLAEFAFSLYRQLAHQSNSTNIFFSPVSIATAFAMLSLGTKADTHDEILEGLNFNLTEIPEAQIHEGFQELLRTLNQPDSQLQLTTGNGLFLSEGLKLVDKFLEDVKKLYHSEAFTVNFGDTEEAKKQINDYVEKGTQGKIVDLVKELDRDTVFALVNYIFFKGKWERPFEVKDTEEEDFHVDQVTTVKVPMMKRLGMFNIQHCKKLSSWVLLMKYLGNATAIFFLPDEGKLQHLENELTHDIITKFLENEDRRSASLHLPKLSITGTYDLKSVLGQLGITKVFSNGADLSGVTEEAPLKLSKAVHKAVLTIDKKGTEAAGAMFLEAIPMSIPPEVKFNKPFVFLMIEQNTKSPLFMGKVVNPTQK

| Compound | EC50 |
| --- | --- |
| Cc1cc(-n2c(C(C)C)c(CC(C)C(=O)O)c3cc4[nH]ncc4cc32)ccc1F (single isomer, unassigned) [Compound 20] | < 1160 nM |
| Cc1cc(-n2c(C(C)C)c(CC(C)C(=O)O)c3cc4[nH]ncc4cc32)ccc1F (single isomer, unassigned) [Compound 21] | < 1160 nM |
| Cc1cc(-n2c(C(C)C)c(C3CC4(CC(C(=O)O)C4)C3)c3cc4[nH]ncc4cc32)ccc1F (single isomer, unassigned) [Compound 25] | < 1160 nM |
| Cc1cc(-n2c(C(C)C)c(C3CC4(CC(C(=O)O)C4)C3)c3cc4[nH]ncc4cc32)ccc1F (single isomer, unassigned) [Compound 26] | < 1160 nM |
| Cc1cc(-n2c(C(C)C)c(C(C)CC(=O)O)c3cc4[nH]ncc4cc32)ccc1F (single isomer, unassigned) [Compound 27] | < 1160 nM |
| Cc1cc(-n2c(C(C)C)c(C(C)CC(=O)O)c3cc4[nH]ncc4cc32)ccc1F (single isomer, unassigned) [Compound 28] | < 1160 nM |
| CC(C)c1c(C2CC3(CC(C(=O)O)C3)C2)c2cc3[nH]ncc3cc2n1-c1ccc(F)cc1 (single isomer, unassigned) [Compound 35, 6-[5-(4-fluorophenyl)-6-isopropyl-1H-pyrrolo[2,3-f]indazol-7-yl]spiro[3.3]heptane-2-carboxylic acid] | < 1160 nM |
| CC(C)c1c(C2CC3(CC(C(=O)O)C3)C2)c2cc3[nH]ncc3cc2n1-c1ccc(F)cc1 (single isomer, unassigned) [Compound 36, 6-[5-(4-fluorophenyl)-6-isopropyl-1H-pyrrolo[2,3-f]indazol-7-yl]spiro[3.3]heptane-2-carboxylic acid] | < 1160 nM |
| Cc1cc(-n2c(C(C)C)c(C3CC4(CC(C(=O)O)C4)C3)c3cc4[nH]nc(C)c4cc32)ccc1F (single isomer, unassigned) [Compound 57, 6-[5-(4-fluoro-3-methyl-phenyl)-6-isopropyl-3-methyl-1H-pyrrolo[2,3-f]indazol-7-yl]spiro[3.3]heptane-2-carboxylic acid] | 1160 to 3000 nM |
| Cc1cc(-n2c(C(C)C)c(C3CC4(CC(C(=O)O)C4)C3)c3cc4[nH]nc(C)c4cc32)ccc1F (single isomer, unassigned) [Compound 58, 6-[5-(4-fluoro-3-methyl-phenyl)-6-isopropyl-3-methyl-1H-pyrrolo[2,3-f]indazol-7-yl]spiro[3.3]heptane-2-carboxylic acid] | 1160 to 3000 nM |
| O=C(O)C1CC2(C1)CC(c1c(C3CCOCC3)n(-c3ccc(F)c(F)c3)c3cc4cn[nH]c4cc13)C2 (single isomer, unassigned) [Compound 67] | < 1160 nM |
| O=C(O)C1CC2(C1)CC(c1c(C3CCOCC3)n(-c3ccc(F)c(F)c3)c3cc4cn[nH]c4cc13)C2 (single isomer, unassigned) [Compound 68] | < 1160 nM |
| CC1(C(=O)O)CC(c2c(C3CCOCC3)n(-c3ccc(F)c(F)c3)c3cc4cn[nH]c4cc23)C1 (single isomer, unassigned) [Compound 69] | > 3000 nM |
| CC1(C(=O)O)CC(c2c(C3CCOCC3)n(-c3ccc(F)c(F)c3)c3cc4cn[nH]c4cc23)C1 (single isomer, unassigned) [Compound 70] | < 1160 nM |
| O=C(O)[C@H]1C[C@H](Cc2c(C3CCOCC3)n(-c3ccc(F)c(F)c3)c3cc4cn[nH]c4cc23)C1 (single isomer, unassigned) [Compound 71] | > 3000 nM |
| O=C(O)[C@H]1C[C@@H](Cc2c(C3CCOCC3)n(-c3ccc(F)c(F)c3)c3cc4cn[nH]c4cc23)C1 (single isomer, unassigned) [Compound 72] | 1160 to 3000 nM |
| O=C(O)[C@H]1CC[C@@H](Cc2c(C3CCOCC3)n(-c3ccc(F)c(F)c3)c3cc4cn[nH]c4cc23)CC1 (single isomer, unassigned) [Compound 73] | < 1160 nM |

| Compound | EC50 |
| --- | --- |
| O=C(O)[C@H]1CC[C@H](Cc2c(C3CCOCC3)n(-c3ccc(F)c(F)c3)c3cc4cn[nH]c4cc23)CC1 (single isomer, unassigned) [Compound 74] | 1160 to 3000 nM |
| O=C(O)C1CC2(C1)CC(c1c(C3CCOCC3)n(-c3ccc(F)c(Cl)c3)c3cc4cn[nH]c4cc13)C2 (single isomer, unassigned) [Compound 77] | < 1160 nM |
| O=C(O)C1CC(Cc2c(C3CCOCC3)n(-c3ccc(F)c(Cl)c3)c3cc4cn[nH]c4cc23)C1 (single isomer, unassigned) [Compound 80] | < 1160 nM |
| O=C(O)C1CC(Cc2c(C3CCOCC3)n(-c3ccc(F)c(Cl)c3)c3cc4cn[nH]c4cc23)C1 (single isomer, unassigned) [Compound 81] | 1160 to 3000 nM |
| [H][C@]1(C(=O)O)C[C@]2(C1)C[C@@]([H])(c1c(C3CCOCC3)n(-c3ccc(F)c(C)c3)c3cc4cn[nH]c4cc31)C2 (single isomer, unassigned) [Compound 91] | < 1160 nM |
| [H][C@]1(C(=O)O)C[C@]2(C1)C[C@]([H])(c1c(C3CCOCC3)n(-c3ccc(F)c(C)c3)c3cc4cn[nH]c4cc31)C2 (single isomer, unassigned) [Compound 92] | < 1160 nM |
| Cc1cc(-n2c(C3CCOCC3)c([C@H]3C[C@H](CC(=O)O)C3)c3cc4[nH]ncc4cc32)ccc1F (single isomer, unassigned) [Compound 94] | 1160 to 3000 nM |
| Cc1cc(-n2c(C3CCOCC3)c([C@H]3C[C@@H](CC(=O)O)C3)c3cc4[nH]ncc4cc32)ccc1F (single isomer, unassigned) [Compound 95] | 1160 to 3000 nM |
| Cc1cc(-n2c(C3CCOCC3)c(C[C@H]3C[C@@H](C(=O)O)C3)c3cc4[nH]ncc4cc32)ccc1F (single isomer, unassigned) [Compound 97] | < 1160 nM |
| Cc1cc(-n2c(C3CCOCC3)c(C[C@H]3C[C@H](C(=O)O)C3)c3cc4[nH]ncc4cc32)ccc1F (single isomer, unassigned) [Compound 98] | 1160 to 3000 nM |
| Cc1cc(-n2c(C3CCOCC3)c(CC3CC3C(=O)O)c3cc4[nH]ncc4cc32)ccc1F (single isomer, unassigned) [Compound 101] | > 3000 nM |
| Cc1cc(-n2c(C3CCOCC3)c(CC3CC3C(=O)O)c3cc4[nH]ncc4cc32)ccc1F (single isomer, unassigned) [Compound 102] | > 3000 nM |
| Cc1cc(-n2c(C3CCOCC3)c([C@H]3C[C@](C)(C(=O)O)C3)c3cc4[nH]ncc4cc32)ccc1F (single isomer, unassigned) [Compound 104] | < 1160 nM |
| Cc1cc(-n2c(C3CCOCC3)c(C[C@H]3CC[C@H](C(=O)O)CC3)c3cc4[nH]ncc4cc32)ccc1F (single isomer, unassigned) [Compound 106] | < 1160 nM |
| [H][C@]1(C(=O)O)C[C@]2(C1)C[C@@]([H])(c1c(C3CCOCC3)n(-c3ccc(F)cc3)c3cc4cn[nH]c4cc31)C2 (single isomer, unassigned) [Compound 109] | 1160 to 3000 nM |
| [H][C@]1(C(=O)O)C[C@]2(C1)C[C@]([H])(c1c(C3CCOCC3)n(-c3ccc(F)cc3)c3cc4cn[nH]c4cc31)C2 (single isomer, unassigned) [Compound 110] | 1160 to 3000 nM |
| C[C@]1(C(=O)O)C[C@@H](c2c(C3CCOCC3)n(-c3ccc(F)cc3)c3cc4cn[nH]c4cc32)C1 (single isomer, unassigned) [Compound 114] | > 3000 nM |

Source: patent publication US11623924B2, “Modulators of alpha-1 antitrypsin” (Vertex Pharmaceuticals Incorporated, priority 2018, dated 2023)
